# From paper PMC8070745, “FEN1 Blockade for Platinum Chemo-Sensitization and Synthetic Lethality in Epithelial Ovarian Cancers” (Cancers, 2021)
# How the values were obtained:
# [1] = target: T1, Recombinant human FEN1 protein (Homo sapiens, UniProt P39748); assay: fluorescence-based HTS assay for FEN1 inhibitors; format: biochemical; conditions: dilution series on each screening plate
# T1 construct: made in house
# Procedure: reactions containing 50 mM Tris pH 8.0, 10 mM MgCl2, 1 mM DTT and 0.01% Tween-20.
# Reactions were incubated at 37 °C for 10 min. To inactivate the enzyme, an equal volume of
# stop buffer (90% Formamide, 20 mM EDTA) was added and the mixture was heated at 95 °C
# for 10 min. Following separation on a 15% polyacrylamide-urea denaturing gel, substrate
# and product bands were visualized by a Typhoon Trio+ Variable Model Imager (Amersham
# Bioscience/GE Healthcare, Piscataway, NJ), and the signals were quantified using
# ImageQuant software (Molecular Dynamics, GE Healthcare).
# Development of HTS assay to isolate novel FEN1 inhibitors: To facilitate the search for
# novel FEN1 inhibitors, we have developed a fluorogenic donor/quencher reporter pair to
# monitor generation of reaction product in real time (28) (Supplementary Figure S4A ).
# Recombinant human FEN1 protein was purified from bacteria as described previously (27).
# All oligodeoxynucleotides were purchased from Biosearch Technologies, Inc., (Novato, CA,
# USA). The double-stranded DNA substrate containing a double flap region used in the […]
# BHQ-2 quencher (which absorbs 6-TAMRA fluorescence when in close proximity) is lost,
# and FEN1 activity is measured indirectly as an increase in fluorescence signal (Figure 3).
# Kinetic fluorescence data were collected on ViewLux high-throughput CCD imager (Perkin […]
# by absence of fluorescence. […]
# [2] = system: FEN1 nuclear level in A2780 cells; assay: Nuclear extract western blot for FEN1, A2780; format: cell-based, human; conditions: 5 µM cisplatin, 24 h
# Procedure: Clonogenic assay: In the clonogenic assay (colony formation assays), 32 cells/cm2 were seeded in 6-well plates and left at 37°C in a 5% CO2 atmosphere. Cisplatin (5µM) and/or FEN1i (10µM) and/or Importazole (5 µM, Selleckem, S8446 ) were added at the indicated concentrations and the plates were left at 37 °C in a 5% CO 2 atmosphere for 14 days. Later, the plates were washed with PBS, fixed and stained with a crystal violet, acetic acid and methanol solution and colonies were counted.
# Nuclear and cytoplasmic extract: Cells were harvest by trypsinization, washed with PBS and centrifuged at 1000×g for 5min. […] Protein level were then quantified prior to use in western blots.
# BCA protein quantification: Protein quantification was done using the Pierce BCA kit assay by Thermo Fisher Scientific. […] The plate was incubated at 37°C during 30 min in the dark and the absorbance was measured by FLUOstar OPTIMA, UK/ Infinite® F50 (UK) microplate reader at 590 nm. […]
# Western Blot Analysis: Cells were harvested and lysed in RIPA buffer (R0278, Sigma) with the addition of protease cocktail inhibitor (P8348, Sigma), phosphatase inhibitor cocktail 2 (P5726, Sigma) and phosphatase inhibitor cocktail 3 (P0044, Sigma) and stored at - 20°C. Protein was quantified using BCA Protein Assay kit (23225, Thermo Fisher). […]
# T1 sequence (P39748 whole entry): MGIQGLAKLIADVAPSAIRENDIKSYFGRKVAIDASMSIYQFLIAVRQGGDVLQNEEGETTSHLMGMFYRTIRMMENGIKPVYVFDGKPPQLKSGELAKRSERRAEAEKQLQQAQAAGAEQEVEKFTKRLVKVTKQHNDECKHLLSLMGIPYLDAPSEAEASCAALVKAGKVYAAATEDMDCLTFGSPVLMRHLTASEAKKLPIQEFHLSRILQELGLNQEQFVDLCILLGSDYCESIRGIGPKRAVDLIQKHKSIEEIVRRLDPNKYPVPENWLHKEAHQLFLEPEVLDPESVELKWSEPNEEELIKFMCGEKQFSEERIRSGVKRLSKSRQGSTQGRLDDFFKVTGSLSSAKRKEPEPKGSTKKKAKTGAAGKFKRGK
inhibition pattern of control dilution series in the screen [1],SMILES,nuclear level of FEN1 after cisplatin [2]
uniform inhibition pattern,"Cc1csc2c1c(=O)n(O)c(=O)n2-c1ccccc1 [PTPD, 3-hydroxy-5-methyl-1-phenylthieno [2,3 d]pyrimidine-2,4(1H,3H)-dione]",
,N.N.[Cl][Pt][Cl] [cisplatin],significantly decreased
